Blank lines part the entries; values can stand above or below the compound they belong to.
How the values were obtained:
Cavia porcellus = species: Cavia porcellus; experiment: Opioid activity in guinea pig ileum; assay type: functional
[1] = target: Delta-type opioid receptor (Homo sapiens, UniProt P41143); experiment: Binding affinity to Opioid receptor delta 1 by competitive inhibition of radioligand [3H]DPDPE using cloned receptors transiently expressed on CHO cells; assay type: cell-based, Cavia porcellus
[2] = target: Kappa-type opioid receptor (Cavia porcellus, UniProt P41144); experiment: Binding affinity to Opioid receptor kappa 1 by competitive inhibition of radioligand [3H]diprenorphine using cloned receptors transiently expressed on CHO cells; assay type: cell-based
Mu-type opioid receptor = Mu-type opioid receptor (Cavia porcellus, UniProt P97266); experiment: Binding affinity to Opioid receptor mu 1 by competitive inhibition of radioligand [3H]DAMGO using cloned receptors transiently expressed on CHO cells; assay type: cell-based

IC50 (Cavia porcellus): > 5000 nM
SMILES: CC(C)C[C@H](NC(=O)[C@H](CCCCN)NC(=O)[C@@H]1CCCN1C(=O)[C@H](CCCN=C(N)N)NC(=O)[C@@H]1CNC(=O)[C@H](CCCN=C(N)N)NC(=O)[C@H](CCCN=C(N)N)NC(=O)[C@H](NC(=O)[C@H](Cc2ccccc2)NC(=O)CNC(=O)CNC(=O)[C@@H](N)Cc2ccc(O)cc2)CC(=O)N1)C(=O)N[C@@H](CCCCN)C(=O)O

IC50 (Cavia porcellus): 530 nM
SMILES: CC(C)C[C@H](NC(=O)[C@H](CCCCN)NC(=O)[C@@H]1CCCN1C(=O)[C@H](CCCN=C(N)N)NC(=O)[C@@H]1CCCNC(=O)[C@H](CCCN=C(N)N)NC(=O)[C@H](CCCN=C(N)N)NC(=O)[C@H](NC(=O)[C@H](Cc2ccccc2)NC(=O)CNC(=O)CNC(=O)[C@@H](N)Cc2ccc(O)cc2)CC(=O)N1)C(=O)N[C@@H](CCCCN)C(=O)O

SMILES: CC[C@H](C)[C@@H]1NC(=O)[C@H](CCCNC(=N)N)NC(=O)[C@H](NC(=O)[C@H](CC(C)C)NC(=O)[C@H](Cc2ccccc2)NC(=O)CNC(=O)CNC(=O)[C@@H](N)Cc2ccc(O)cc2)CC(=O)NCC[C@@H](C(=O)N2CCC[C@H]2C(=O)N[C@@H](CCCCN)C(=O)N[C@@H](CC(C)C)C(=O)N[C@@H](CCCCN)C(N)=O)NC1=O
Ki [1]: 180 nM
Ki [2]: 2.5 nM
Ki (Mu-type opioid receptor): 4.8 nM

IC50 (Cavia porcellus): 1400 nM
SMILES: CC[C@H](C)[C@H](NC(=O)[C@H](CCCNC(=N)N)NC(=O)[C@H](CCCNC(=N)N)NC(=O)[C@@H](CC(=O)O)NC(=O)[C@H](Cc1ccccc1)NC(=O)CNC(=O)CNC(=O)[C@@H](N)Cc1ccc(O)cc1)C(=O)N[C@@H](CCCNC(=N)N)C(=O)N1CCC[C@H]1C(=O)N[C@@H](CCCCN)C(=O)N[C@@H](CC(C)C)C(=O)N[C@@H](CCCCN)C(=O)O

SMILES: CC[C@H](C)[C@@H]1NC(=O)[C@H](CCCNC(=N)N)NC(=O)[C@H](NC(=O)[C@H](CC(C)C)NC(=O)[C@H](Cc2ccccc2)NC(=O)CNC(=O)CNC(=O)[C@@H](N)Cc2ccc(O)cc2)CC(=O)NC[C@@H](C(=O)N2CCC[C@H]2C(=O)N[C@@H](CCCCN)C(=O)N[C@@H](CC(C)C)C(=O)N[C@@H](CCCCN)C(N)=O)NC1=O
Ki ([1]; cho): 48 nM
Ki ([2]; cho): 2.6 nM
Ki (Mu-type opioid receptor; cho): 4.4 nM

SMILES: CC[C@H](C)[C@H](NC(=O)[C@H](CCCNC(=N)N)NC(=O)[C@@H](CC(=O)O)NC(=O)[C@H](CC(C)C)NC(=O)[C@H](Cc1ccccc1)NC(=O)CNC(=O)CNC(=O)[C@@H](N)Cc1ccc(O)cc1)C(=O)N[C@@H](CN)C(=O)N1CCC[C@H]1C(=O)N[C@@H](CCCCN)C(=O)N[C@@H](CC(C)C)C(=O)N[C@@H](CCCCN)C(N)=O
Ki ([1]; cho): 8.2 nM
Ki ([2]; cho): 12 nM
IC50 (Cavia porcellus): 74 nM
Ki (Mu-type opioid receptor; cho): 1.5 nM

SMILES: CC(C)C[C@H](NC(=O)[C@H](CCCCN)NC(=O)[C@@H]1CCCN1C(=O)[C@H](CCCNC(=N)N)NC(=O)[C@@H]1CNC(=O)C[C@@H](NC(=O)[C@H](Cc2ccccc2)NC(=O)CNC(=O)CNC(=O)[C@@H](N)Cc2ccc(O)cc2)C(=O)N[C@@H](CCCNC(=N)N)C(=O)N[C@@H](CCCNC(=N)N)C(=O)N1)C(=O)N[C@@H](CCCCN)C(N)=O
Ki [1]: 3300 nM
Ki [2]: 8 nM
Ki (Mu-type opioid receptor): 75 nM

SMILES: CC[C@H](C)[C@H](NC(=O)[C@H](CCCNC(=N)N)NC(=O)[C@@H](CC(=O)O)NC(=O)[C@H](CC(C)C)NC(=O)[C@H](Cc1ccccc1)NC(=O)CNC(=O)CNC(=O)[C@@H](N)Cc1ccc(O)cc1)C(=O)N[C@@H](CCCNC(=N)N)C(=O)N1CCC[C@H]1C(=O)N[C@@H](CCCCN)C(=O)N[C@@H](CC(C)C)C(=O)N[C@@H](CCCCN)C(N)=O
Ki [1]: 22 nM
Ki [2]: 8 nM
IC50 (Cavia porcellus): 29 nM
Ki (Mu-type opioid receptor): 1.2 nM

IC50 (Cavia porcellus): 22 nM
SMILES: CC[C@H](C)[C@@H]1NC(=O)[C@H](CCCN=C(N)N)NC(=O)[C@H](NC(=O)[C@H](CC(C)C)NC(=O)[C@H](Cc2ccccc2)NC(=O)CNC(=O)CNC(=O)[C@@H](N)Cc2ccc(O)cc2)CC(=O)N[C@H](C(=O)N2CCC[C@H]2C(=O)N[C@@H](CCCCN)C(=O)N[C@@H](CC(C)C)C(=O)N[C@@H](CCCCN)C(=O)O)CCNC1=O

SMILES: CC[C@H](C)[C@H](NC(=O)[C@H](CCCNC(=N)N)NC(=O)[C@H](CCCNC(=N)N)NC(=O)[C@H](CC(C)C)NC(=O)[C@H](Cc1ccccc1)NC(=O)CNC(=O)CNC(=O)[C@@H](N)Cc1ccc(O)cc1)C(=O)N[C@@H](CCCNC(=N)N)C(=O)N1CCC[C@H]1C(=O)N[C@@H](CCCCN)C(=O)N[C@@H](CC(C)C)C(=O)N[C@@H](CCCCN)C(=O)O [ANALOG OF DYNORPHIN A]
Ki [1]: 28.4 nM
Ki [2]: 0.31 nM
IC50 (Cavia porcellus): 0.19 nM
Ki (Mu-type opioid receptor): 0.92 nM

IC50 (Cavia porcellus): 46 nM
SMILES: CC[C@H](C)[C@@H]1NC(=O)[C@H](CCCN=C(N)N)NC(=O)[C@H](NC(=O)[C@H](CC(C)C)NC(=O)[C@H](Cc2ccccc2)NC(=O)CNC(=O)CNC(=O)[C@@H](N)Cc2ccc(O)cc2)CC(=O)N[C@H](C(=O)N2CCC[C@H]2C(=O)N[C@@H](CCCCN)C(=O)N[C@@H](CC(C)C)C(=O)N[C@@H](CCCCN)C(=O)O)CNC1=O

IC50 (Cavia porcellus): 1300 nM
SMILES: CC(C)C[C@H](NC(=O)[C@H](CCCCN)NC(=O)[C@@H]1CCCN1C(=O)[C@H](CCCN=C(N)N)NC(=O)[C@@H]1CCNC(=O)[C@H](CCCN=C(N)N)NC(=O)[C@H](CCCN=C(N)N)NC(=O)[C@H](NC(=O)[C@H](Cc2ccccc2)NC(=O)CNC(=O)CNC(=O)[C@@H](N)Cc2ccc(O)cc2)CC(=O)N1)C(=O)N[C@@H](CCCCN)C(=O)O

SMILES: CC[C@H](C)[C@H](NC(=O)[C@H](CCCNC(=N)N)NC(=O)[C@H](CCCNC(=N)N)NC(=O)[C@@H](CC(=O)O)NC(=O)[C@H](Cc1ccccc1)NC(=O)CNC(=O)CNC(=O)[C@@H](N)Cc1ccc(O)cc1)C(=O)N[C@@H](CCCNC(=N)N)C(=O)N1CCC[C@H]1C(=O)N[C@@H](CCCCN)C(=O)N[C@@H](CC(C)C)C(=O)N[C@@H](CCCCN)C(N)=O
Ki [1]: 1300 nM
Ki [2]: 58 nM
Ki (Mu-type opioid receptor): 6.1 nM

SMILES: CC(C)C[C@H](NC(=O)[C@H](CCCCN)NC(=O)[C@@H]1CCCN1C(=O)[C@H](CCCNC(=N)N)NC(=O)[C@H](CN)NC(=O)[C@H](CCCNC(=N)N)NC(=O)[C@H](CCCNC(=N)N)NC(=O)[C@@H](CC(=O)O)NC(=O)[C@H](Cc1ccccc1)NC(=O)CNC(=O)CNC(=O)[C@@H](N)Cc1ccc(O)cc1)C(=O)N[C@@H](CCCCN)C(N)=O
Ki [1]: 1600 nM
Ki [2]: 20 nM
Ki (Mu-type opioid receptor): 8.3 nM

SMILES: CC[C@H](C)[C@@H]1NC(=O)[C@H](CCCNC(=N)N)NC(=O)[C@H](NC(=O)[C@H](CC(C)C)NC(=O)[C@H](Cc2ccccc2)NC(=O)CNC(=O)CNC(=O)[C@@H](N)Cc2ccc(O)cc2)CC(=O)NCCC[C@@H](C(=O)N2CCC[C@H]2C(=O)N[C@@H](CCCCN)C(=O)N[C@@H](CC(C)C)C(=O)N[C@@H](CCCCN)C(N)=O)NC1=O
Ki [1]: 28 nM
Ki [2]: 1.5 nM
IC50 (Cavia porcellus): 6.8 nM
Ki (Mu-type opioid receptor): 3.2 nM

SMILES: CC(C)C[C@H](NC(=O)[C@H](CCCCN)NC(=O)[C@@H]1CCCN1C(=O)[C@H](CCCNC(=N)N)NC(=O)[C@@H]1CCCNC(=O)C[C@@H](NC(=O)[C@H](Cc2ccccc2)NC(=O)CNC(=O)CNC(=O)[C@@H](N)Cc2ccc(O)cc2)C(=O)N[C@@H](CCCNC(=N)N)C(=O)N[C@@H](CCCNC(=N)N)C(=O)N1)C(=O)N[C@@H](CCCCN)C(N)=O
Ki [1]: 1900 nM
Ki [2]: 12 nM
Ki (Mu-type opioid receptor): 62 nM

SMILES: CC(C)C[C@H](NC(=O)[C@H](CCCCN)NC(=O)[C@@H]1CCCN1C(=O)[C@H](CCCNC(=N)N)NC(=O)[C@@H]1CCNC(=O)C[C@@H](NC(=O)[C@H](Cc2ccccc2)NC(=O)CNC(=O)CNC(=O)[C@@H](N)Cc2ccc(O)cc2)C(=O)N[C@@H](CCCNC(=N)N)C(=O)N[C@@H](CCCNC(=N)N)C(=O)N1)C(=O)N[C@@H](CCCCN)C(N)=O
Ki [1]: 4100 nM
Ki [2]: 14 nM
Ki (Mu-type opioid receptor): 40 nM

— ChEMBL document CHEMBL1130436, “Synthesis and opioid activity of conformationally constrained dynorphin A analogues. 2. Conformational constraint in the "address" sequence” (J Med Chem, 1997)
